According to PubChem BioAssay AID228 (DTP/NCI, 2004):
Values joined by “and” are separate entries in the source; they are usually repeats but may differ in a detail not shown here. Equal entries are not always repeated. Results filed as inconclusive are left out.

Test system: BDF1 mice, Friend leukemia sc, tumor weight T/C
Test: NCI In Vivo Anticancer Drug Screen. Data for tumor model Friend Virus Leukemia (Solid) (subcutaneous) in B6D2F1 (BDF1) mice
Settings: endpoint: mean tumor weight, higher = larger tumour
Experimental: The antitumor activity of compounds was measured in mice bearing transplantable tumors. Survival or tumor size were measured and the results are expressed as the measurement made in the treated group (T) divided by the measurement made in the vehicle treated control group (C). The tumor model used in this assay is Friend Virus Leukemia (Solid) (subcutaneous) in B6D2F1 (BDF1) mice

[1] = dose: 0.1 mg/kg/injection, schedule: Q01DX011 (ip), vehicle: carboxymethylcellulose (CMC)
[2] = dose: 50.0 mg/kg/injection, schedule: Q01DX011 (ip), vehicle: saline
[3] = dose: 90.0 mg/kg/injection, schedule: Q01DX011 (ip), vehicle: carboxymethylcellulose (CMC)
[4] = dose: 180.0 mg/kg/injection, schedule: Q01DX011 (ip), vehicle: carboxymethylcellulose (CMC)
[5] = dose: 3.0 mg/kg/injection, schedule: Q01DX011 (ip), vehicle: carboxymethylcellulose (CMC)
[6] = dose: 6.0 mg/kg/injection, schedule: Q01DX011 (ip), vehicle: carboxymethylcellulose (CMC)
[7] = dose: 4.4 mg/kg/injection, schedule: Q01DX011 (ip), vehicle: carboxymethylcellulose (CMC)
[8] = dose: 10.0 mg/kg/injection, schedule: Q01DX011 (ip), vehicle: carboxymethylcellulose (CMC)
[9] = dose: 15.0 mg/kg/injection, schedule: Q01DX011 (ip), vehicle: carboxymethylcellulose (CMC)
[10] = dose: 5.0 mg/kg/injection, schedule: Q01DX011 (ip), vehicle: carboxymethylcellulose (CMC)
[11] = dose: 25.0 mg/kg/injection, schedule: Q01DX011 (ip), vehicle: carboxymethylcellulose (CMC)
[12] = dose: 37.5 mg/kg/injection, schedule: Q01DX011 (ip), vehicle: carboxymethylcellulose (CMC)
[13] = dose: 75.0 mg/kg/injection, schedule: Q01DX011 (ip), vehicle: carboxymethylcellulose (CMC)
[14] = dose: 100.0 mg/kg/injection, schedule: Q01DX011 (ip), vehicle: carboxymethylcellulose (CMC)

## CO[C@@]12[C@H](COC(N)=O)C3=C(C(=O)C(C)=C(N)C3=O)N1C[C@@H]1N[C@@H]12
dose: 0.06 mg/kg/injection, schedule: Q01DX011 (ip), vehicle: carboxymethylcellulose (CMC)
  T/C: 48 % of control
[1]
  T/C: 66 % of control
dose: 0.13 mg/kg/injection, schedule: Q01DX011 (ip), vehicle: carboxymethylcellulose (CMC)
  T/C: 56 % of control
dose: 0.2 mg/kg/injection, schedule: Q01DX011 (ip), vehicle: carboxymethylcellulose (CMC)
  T/C: 77 % of control
dose: 0.25 mg/kg/injection, schedule: Q01DX011 (ip), vehicle: carboxymethylcellulose (CMC)
  T/C: 35 % of control and 45 % of control
dose: 0.4 mg/kg/injection, schedule: Q01DX011 (ip), vehicle: carboxymethylcellulose (CMC)
  T/C: 100 % of control
dose: 0.5 mg/kg/injection, schedule: Q01DX011 (ip), vehicle: carboxymethylcellulose (CMC)
  T/C: 28 % of control
dose: 0.8 mg/kg/injection, schedule: Q01DX011 (ip), vehicle: carboxymethylcellulose (CMC)
  T/C: 75 % of control

## CC(/C=N/N=C(N)N)=N\N=C(N)N
dose: 12.5 mg/kg/injection, schedule: Q01DX011 (ip), vehicle: saline
  T/C: 155 % of control
dose: 25.0 mg/kg/injection, schedule: Q01DX011 (ip), vehicle: saline
  T/C: 190 % of control
[2]
  T/C: 169 % of control

## N#Cc1cn(C2OC(CO)C(O)C2O)c2ncnc(N)c12 (stereo not drawn)
dose: 0.05 mg/kg/injection, schedule: Q01DX011 (ip), vehicle: carboxymethylcellulose (CMC)
  T/C: 68 % of control
[1]
  T/C: 72 % of control
dose: 0.15 mg/kg/injection, schedule: Q01DX011 (ip), vehicle: carboxymethylcellulose (CMC)
  T/C: 71 % of control

## CC(C)CCSc1nc(N)nc2nc[nH]c12
dose: 11.0 mg/kg/injection, schedule: Q01DX011 (ip), vehicle: carboxymethylcellulose (CMC)
  T/C: 59 % of control
dose: 22.0 mg/kg/injection, schedule: Q01DX011 (ip), vehicle: carboxymethylcellulose (CMC)
  T/C: 38 % of control
dose: 45.0 mg/kg/injection, schedule: Q01DX011 (ip), vehicle: carboxymethylcellulose (CMC)
  T/C: 18 % of control and 21 % of control
[3]
  T/C: 7 % of control and 21 % of control
[4]
  T/C: 5 % of control

## CCCCCC(=O)O[C@]1(C(C)=O)CC[C@H]2[C@@H]3CCC4=CC(=O)CC[C@]4(C)[C@H]3CC[C@@]21C
dose: 125.0 mg/kg/injection, schedule: Q01DX011 (sc), vehicle: steriod suspending solution
  T/C: 173 % of control
dose: 250.0 mg/kg/injection, schedule: Q01DX011 (sc), vehicle: steriod suspending solution
  T/C: 166 % of control
dose: 375.0 mg/kg/injection, schedule: Q01DX011 (sc), vehicle: steriod suspending solution
  T/C: 156 % of control
dose: 750.0 mg/kg/injection, schedule: Q01DX011 (sc), vehicle: steriod suspending solution
  T/C: 124 % of control

## O=C(c1ccc(C(=O)N2CC2)cc1)N1CC1
[5]
  T/C: 79 % of control
[6]
  T/C: 90 % of control
dose: 12.0 mg/kg/injection, schedule: Q01DX011 (ip), vehicle: carboxymethylcellulose (CMC)
  T/C: 74 % of control
dose: 24.0 mg/kg/injection, schedule: Q01DX011 (ip), vehicle: carboxymethylcellulose (CMC)
  T/C: 76 % of control

## C[n+]1c(-c2ccccc2)c2cc(N)ccc2c2ccccc21
[7]
  T/C: 103 % of control
dose: 6.6 mg/kg/injection, schedule: Q01DX011 (ip), vehicle: carboxymethylcellulose (CMC)
  T/C: 117 % of control
[8]
  T/C: 53 % of control
[9]
  T/C: 89 % of control

## c1ccc(CSc2ncnc3nc[nH]c23)cc1
[10]
  T/C: 118 % of control
[8]
  T/C: 90 % of control
[9]
  T/C: 109 % of control
[11]
  T/C: 91 % of control

## CC(C)(c1ccccc1)c1ccc(O)cc1
[12]
  T/C: 94 % of control
[13]
  T/C: 107 % of control
dose: 150.0 mg/kg/injection, schedule: Q01DX011 (ip), vehicle: carboxymethylcellulose (CMC)
  T/C: 87 % of control

## O=C(O)CCc1c[nH]c2ccc(N(CCCl)CCCl)cc12
dose: 1.2 mg/kg/injection, schedule: Q01DX011 (ip), vehicle: carboxymethylcellulose (CMC)
  T/C: 107 % of control
dose: 2.5 mg/kg/injection, schedule: Q01DX011 (ip), vehicle: carboxymethylcellulose (CMC)
  T/C: 92 % of control
[10]
  T/C: 114 % of control

## O=C1NC2C(NC(=O)N2Cl)N1Cl (stereo not drawn)
dose: 20.0 mg/kg/injection, schedule: Q01DX011 (ip), vehicle: saline
  T/C: 105 % of control
dose: 40.0 mg/kg/injection, schedule: Q01DX011 (ip), vehicle: saline
  T/C: 103 % of control

## Fc1ccc(CSc2ncnc3c2ncn3C2CCCCO2)cc1 (stereo not drawn)
[3]
  T/C: 10 % of control
[4]
  T/C: 1 % of control

## Nc1ncnc2[nH]ncc12
dose: 0.9 mg/kg/injection, schedule: Q01DX011 (ip), vehicle: carboxymethylcellulose (CMC)
  T/C: 108 % of control
dose: 0.93 mg/kg/injection, schedule: Q01DX011 (ip), vehicle: carboxymethylcellulose (CMC)
  T/C: 74 % of control
dose: 1.8 mg/kg/injection, schedule: Q01DX011 (ip), vehicle: carboxymethylcellulose (CMC)
  T/C: 157 % of control
dose: 1.87 mg/kg/injection, schedule: Q01DX011 (ip), vehicle: carboxymethylcellulose (CMC)
  T/C: 90 % of control
dose: 1.9 mg/kg/injection, schedule: Q01DX011 (ip), vehicle: carboxymethylcellulose (CMC)
  T/C: 124 % of control
dose: 3.7 mg/kg/injection, schedule: Q01DX011 (ip), vehicle: carboxymethylcellulose (CMC)
  T/C: 57 % of control
dose: 3.75 mg/kg/injection, schedule: Q01DX011 (ip), vehicle: carboxymethylcellulose (CMC)
  T/C: 50 % of control
dose: 3.8 mg/kg/injection, schedule: Q01DX011 (ip), vehicle: carboxymethylcellulose (CMC)
  T/C: 88 % of control
[10]
  T/C: 29 % of control
[6]
  T/C: 40 % of control
dose: 7.0 mg/kg/injection, schedule: Q01DX011 (ip), vehicle: carboxymethylcellulose (CMC)
  T/C: 28 % of control

## C=CCn1c(=O)n(CC=C)c(=O)n(CC=C)c1=O
dose: 22.5 mg/kg/injection, schedule: Q01DX011 (ip), vehicle: saline
  T/C: 77 % of control
dose: 45.0 mg/kg/injection, schedule: Q01DX011 (ip), vehicle: saline
  T/C: 103 % of control
dose: 90.0 mg/kg/injection, schedule: Q01DX011 (ip), vehicle: saline
  T/C: 64 % of control
dose: 180.0 mg/kg/injection, schedule: Q01DX011 (ip), vehicle: saline
  T/C: 82 % of control

## CC(/C=N/N=C(N)N)=N/N=C(N)N
[2]
  T/C: 124 % of control

## NNc1nncc2ccccc12
[12]
  T/C: 108 % of control
[13]
  T/C: 66 % of control

## O=[As]O
dose: 1.6 mg/kg/injection, schedule: Q01DX011 (ip), vehicle: carboxymethylcellulose (CMC)
  T/C: 78 % of control
dose: 3.25 mg/kg/injection, schedule: Q01DX011 (ip), vehicle: carboxymethylcellulose (CMC)
  T/C: 77 % of control
dose: 6.5 mg/kg/injection, schedule: Q01DX011 (ip), vehicle: carboxymethylcellulose (CMC)
  T/C: 98 % of control
dose: 13.0 mg/kg/injection, schedule: Q01DX011 (ip), vehicle: carboxymethylcellulose (CMC)
  T/C: 46 % of control

## CCCn1cnc2c(=S)nc(N)[nH]c21
dose: 0.67 mg/kg/injection, schedule: Q01DX011 (ip), vehicle: carboxymethylcellulose (CMC)
  T/C: 67 % of control
dose: 1.0 mg/kg/injection, schedule: Q01DX011 (ip), vehicle: carboxymethylcellulose (CMC)
  T/C: 67 % of control
dose: 1.5 mg/kg/injection, schedule: Q01DX011 (ip), vehicle: carboxymethylcellulose (CMC)
  T/C: 28 % of control
dose: 2.9 mg/kg/injection, schedule: Q01DX011 (ip), vehicle: carboxymethylcellulose (CMC)
  T/C: 32 % of control
[7]
  T/C: 32 % of control

## COC(=O)/C=C\C(=O)O (tested in a mixture with another compound)
dose: 14.0 mg/kg/injection, schedule: Q#A X022 (ip), vehicle: carboxymethylcellulose (CMC)
  T/C: 88 % of control
dose: 28.0 mg/kg/injection, schedule: Q#A X022 (ip), vehicle: carboxymethylcellulose (CMC)
  T/C: 92 % of control
dose: 31.0 mg/kg/injection, schedule: Q#A X022 (ip), vehicle: carboxymethylcellulose (CMC)
  T/C: 68 % of control
dose: 56.0 mg/kg/injection, schedule: Q#A X022 (ip), vehicle: carboxymethylcellulose (CMC)
  T/C: 49 % of control
dose: 62.5 mg/kg/injection, schedule: Q#A X022 (ip), vehicle: carboxymethylcellulose (CMC)
  T/C: 36 % of control

## Cc1ccc(N=NN(C)C)cc1
[11]
  T/C: 110 % of control
dose: 50.0 mg/kg/injection, schedule: Q01DX011 (ip), vehicle: carboxymethylcellulose (CMC)
  T/C: 90 % of control
[14]
  T/C: 28 % of control

## CC(CCc1cccc2ccccc12)(C(=O)O)C(=O)O
[14]
  T/C: 92 % of control

## CCCNC(=NC)c1ccc(NC(=O)c2ccc(C(=O)Nc3ccc(C(=NC)NCCC)cc3)cc2)cc1
[5]
  T/C: 80 % of control
[6]
  T/C: 65 % of control
